Experimental findings from patent US12486290B2, “Isoindolinone and indazole compounds for the degradation of EGFR” (C4 THERAPEUTICS, INC., priority 2019, dated 2025) are described below.

What all share (type): cell-based
In assay [1] the target is T1, EGFR T790M/L858R (NCI-H1975 cells) (Homo sapiens, UniProt P00533, L858R/T790M).
T1 construct: NCI-H1975 (harboring EGFR heterozygous T790M/L858R mutations); host or cells: NCI-H1975
Kind of assay: EGFR (L858R) degradation analysis, Total EGFR (L858R) HTRF, NCI-H1975 cells. The following applies: 6 hours. A digest of the protocol:
(§1)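 Cells (10000/well NCI-H1975 and NCI-H1975+CS, 1000/well NCI-H3255) treated with 11-point half-log titrations from 10 μM top, in duplicate, for 6 hours at 37° C., 5% CO2. Total EGFR (L858R) quantified by HTRF FRET; untreated cells as negative and cell-free wells as positive control.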
In general terms: Time-resolved FRET reads energy transfer from a long-lived donor to a nearby acceptor.

For assay [2], the target named is T2, EGFR T790M/L858R/C797S (NCI-H1975+CS cells) (Homo sapiens, UniProt P00533, C797S/L858R/T790M).
T2 construct: NCI-H1975+CS (harboring EGFR heterozygous T/790M/L858R/C797S mutations) was generated using CRISPR technology; host or cells: NCI-H1975+CS (CRISPR-edited NCI-H1975)
Kind of assay: EGFR (L858R) degradation analysis, Total EGFR (L858R) HTRF, NCI-H1975+CS cells. The following applies: 6 hours, read-out: H1975 C797S clone EGFR DC50. The source says:
NCI-H1975 (harboring EGFR heterozygous T790M/L858R mutations) and NCI-H3255 (harboring EGFR heterozygous L858R mutation) were purchased from ATCC and NCI, respectively. NCI-H1975+CS (harboring EGFR heterozygous T/790M/L858R/C797S mutations) was generated using CRISPR technology to introduce the additional C797S mutation by Horizon Discovery. RPMI 1640 no-phenol red medium and fetal bovine serum (FBS) were purchased from Gibco (Grand Island, NY, USA). Cell culture flasks and 384-well microplates were acquired from VWR (Radnor, PA, USA). Total EGFR (L858R) HTRF assay kits were purchased from Cisbio (Bedford, MA, USA).
Degradation of EGFR protein containing L858R mutation was determined based on quantification of FRET signal using Total EGFR (L858R) HTRF assay kit. Test compounds were added to the 384-well plate from a top concentration of 10 μM with 11 points, half log titration in duplicates. NCI-H1975, NCI-H1975+CS or NCI-H3255 cells were added into 384-well plates at a cell density of 10000, 10000 or 1000 cells per well, respectively. The plates were kept at 37° C. with 5% CO2 for 6 hours. Cells treated in the absence of the test compound were the negative control. Positive control was set by wells containing all reagents but no cells. FRET signal was acquired on EnVision™ Multilabel Reader (PerkinElmer, Santa Clara, CA, USA).

Assay [3] deals with T3, EGFR L858R (NCI-H3255 cells) (Homo sapiens, UniProt P00533, L858R).
T3 construct: NCI-H3255 (harboring EGFR heterozygous L858R mutation); host or cells: NCI-H3255
In words: EGFR (L858R) degradation analysis, Total EGFR (L858R) HTRF, NCI-H3255 cells. The conditions noted are these: 6 hours. The gist of the method:
as §1

Molecules are shown by their SMILES.

T2 sequence (P00533 25-1210 T790M/C797S/L858R): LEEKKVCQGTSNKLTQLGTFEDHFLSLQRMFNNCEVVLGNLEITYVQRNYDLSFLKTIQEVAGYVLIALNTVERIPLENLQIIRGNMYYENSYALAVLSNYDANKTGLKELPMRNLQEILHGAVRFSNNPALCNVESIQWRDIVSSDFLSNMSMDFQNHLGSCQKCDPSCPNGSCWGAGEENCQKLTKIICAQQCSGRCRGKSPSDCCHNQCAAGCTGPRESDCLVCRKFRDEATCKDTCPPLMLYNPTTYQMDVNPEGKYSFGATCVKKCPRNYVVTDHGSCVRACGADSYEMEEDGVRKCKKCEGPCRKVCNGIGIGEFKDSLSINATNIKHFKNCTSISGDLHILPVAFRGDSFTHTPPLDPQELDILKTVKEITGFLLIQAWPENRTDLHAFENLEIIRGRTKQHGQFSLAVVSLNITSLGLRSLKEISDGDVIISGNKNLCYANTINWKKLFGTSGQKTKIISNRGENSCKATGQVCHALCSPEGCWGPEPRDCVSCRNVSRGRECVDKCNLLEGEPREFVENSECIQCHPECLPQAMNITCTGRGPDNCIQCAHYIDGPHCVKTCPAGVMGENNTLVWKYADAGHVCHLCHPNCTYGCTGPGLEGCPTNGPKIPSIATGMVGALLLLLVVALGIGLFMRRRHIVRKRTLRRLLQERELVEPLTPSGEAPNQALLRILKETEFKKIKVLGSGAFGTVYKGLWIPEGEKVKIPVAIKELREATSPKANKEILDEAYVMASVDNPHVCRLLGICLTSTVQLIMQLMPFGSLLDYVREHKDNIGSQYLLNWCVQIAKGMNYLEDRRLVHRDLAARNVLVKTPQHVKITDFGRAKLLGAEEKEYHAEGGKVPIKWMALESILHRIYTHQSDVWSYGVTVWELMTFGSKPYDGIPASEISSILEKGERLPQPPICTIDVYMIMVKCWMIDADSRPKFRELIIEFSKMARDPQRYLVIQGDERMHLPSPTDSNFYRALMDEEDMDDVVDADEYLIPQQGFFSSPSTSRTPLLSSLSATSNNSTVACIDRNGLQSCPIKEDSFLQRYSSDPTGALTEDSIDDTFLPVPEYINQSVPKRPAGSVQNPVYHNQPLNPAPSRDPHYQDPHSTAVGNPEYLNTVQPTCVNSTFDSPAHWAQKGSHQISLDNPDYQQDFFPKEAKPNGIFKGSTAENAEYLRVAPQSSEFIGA
T3 sequence (P00533 25-1210 L858R): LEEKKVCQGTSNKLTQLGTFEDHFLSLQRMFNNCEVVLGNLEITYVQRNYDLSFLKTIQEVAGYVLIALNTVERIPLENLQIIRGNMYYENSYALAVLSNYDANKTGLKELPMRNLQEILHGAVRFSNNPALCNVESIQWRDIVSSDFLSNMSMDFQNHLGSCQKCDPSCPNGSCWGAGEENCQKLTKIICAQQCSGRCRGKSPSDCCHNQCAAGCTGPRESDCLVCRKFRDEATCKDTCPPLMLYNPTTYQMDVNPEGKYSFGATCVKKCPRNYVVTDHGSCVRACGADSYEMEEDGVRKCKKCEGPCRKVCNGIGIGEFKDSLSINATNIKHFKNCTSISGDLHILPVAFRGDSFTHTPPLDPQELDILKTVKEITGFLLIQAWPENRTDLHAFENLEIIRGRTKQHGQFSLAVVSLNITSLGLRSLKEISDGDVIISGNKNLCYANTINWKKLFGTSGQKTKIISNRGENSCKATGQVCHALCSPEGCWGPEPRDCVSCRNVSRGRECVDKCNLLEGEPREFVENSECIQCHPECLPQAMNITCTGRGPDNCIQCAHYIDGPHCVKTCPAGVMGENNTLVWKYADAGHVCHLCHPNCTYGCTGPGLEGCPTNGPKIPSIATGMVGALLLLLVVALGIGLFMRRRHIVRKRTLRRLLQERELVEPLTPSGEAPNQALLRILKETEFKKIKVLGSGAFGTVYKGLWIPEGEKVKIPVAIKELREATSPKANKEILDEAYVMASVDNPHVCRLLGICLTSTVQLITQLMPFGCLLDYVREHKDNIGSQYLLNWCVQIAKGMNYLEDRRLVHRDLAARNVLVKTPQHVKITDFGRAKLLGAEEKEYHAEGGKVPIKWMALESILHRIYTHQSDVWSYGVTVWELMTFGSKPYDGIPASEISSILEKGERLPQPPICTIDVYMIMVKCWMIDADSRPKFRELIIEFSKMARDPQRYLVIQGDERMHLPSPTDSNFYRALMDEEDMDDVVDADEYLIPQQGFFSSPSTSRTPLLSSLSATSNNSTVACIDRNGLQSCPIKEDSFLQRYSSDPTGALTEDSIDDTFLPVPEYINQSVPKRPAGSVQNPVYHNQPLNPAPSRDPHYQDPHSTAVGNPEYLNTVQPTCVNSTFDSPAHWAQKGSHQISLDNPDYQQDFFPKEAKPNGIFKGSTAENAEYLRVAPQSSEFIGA
T1 sequence (P00533 25-1210 T790M/L858R): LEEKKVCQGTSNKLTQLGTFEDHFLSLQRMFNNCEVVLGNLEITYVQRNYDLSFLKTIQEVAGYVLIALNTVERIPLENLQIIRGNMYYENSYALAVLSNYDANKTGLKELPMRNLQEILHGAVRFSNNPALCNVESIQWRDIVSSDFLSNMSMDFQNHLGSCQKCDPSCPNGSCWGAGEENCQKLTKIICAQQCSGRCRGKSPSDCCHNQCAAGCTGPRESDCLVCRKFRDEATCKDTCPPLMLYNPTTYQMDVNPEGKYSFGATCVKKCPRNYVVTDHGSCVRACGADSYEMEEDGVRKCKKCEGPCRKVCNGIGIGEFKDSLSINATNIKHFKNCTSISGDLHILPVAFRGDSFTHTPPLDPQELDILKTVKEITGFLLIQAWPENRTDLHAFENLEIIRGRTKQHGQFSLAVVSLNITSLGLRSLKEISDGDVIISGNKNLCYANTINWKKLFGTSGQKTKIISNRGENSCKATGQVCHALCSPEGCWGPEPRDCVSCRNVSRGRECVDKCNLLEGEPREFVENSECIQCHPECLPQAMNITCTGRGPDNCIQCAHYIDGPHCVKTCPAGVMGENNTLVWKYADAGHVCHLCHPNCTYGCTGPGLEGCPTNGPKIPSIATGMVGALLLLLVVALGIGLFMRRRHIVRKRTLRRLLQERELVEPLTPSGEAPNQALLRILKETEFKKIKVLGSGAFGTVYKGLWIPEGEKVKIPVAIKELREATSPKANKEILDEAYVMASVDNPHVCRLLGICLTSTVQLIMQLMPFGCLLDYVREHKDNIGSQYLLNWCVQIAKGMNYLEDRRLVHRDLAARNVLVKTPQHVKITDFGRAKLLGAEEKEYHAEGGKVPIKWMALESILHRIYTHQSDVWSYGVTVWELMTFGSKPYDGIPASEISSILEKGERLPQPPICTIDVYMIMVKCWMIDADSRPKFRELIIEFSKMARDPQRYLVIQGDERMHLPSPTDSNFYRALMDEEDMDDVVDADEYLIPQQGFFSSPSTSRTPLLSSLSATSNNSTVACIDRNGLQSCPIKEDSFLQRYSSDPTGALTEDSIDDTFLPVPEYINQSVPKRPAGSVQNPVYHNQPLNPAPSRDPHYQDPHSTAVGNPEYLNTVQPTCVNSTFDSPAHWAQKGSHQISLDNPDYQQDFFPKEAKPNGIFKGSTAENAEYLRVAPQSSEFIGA

As to `O=C1CCC(Nc2ccc(C3CCN(CC(=O)N4CC5(C4)CN(c4ccc(-c6cc(F)c7c(c6)C(=O)N(C(C(=O)Nc6nccs6)c6ncn8c6CCC8)C7)cc4)C5)CC3)cc2)C(=O)N1` (stereo not drawn) [Compound 47, 2-(6,7-dihydro-5H-pyrrolo[1,2-c]imidazol-1-yl)-2-[6-[4-[2-[2-[4-[4-[(2,6-dioxo-3-piperidyl)amino]phenyl]-1-piperidyl]acetyl]-2,6-diazaspiro[3.3]heptan-6-yl]phenyl]-4-fluoro-1-oxo-isoindolin-2-yl]-N-thiazol-2-yl-acetamide], the figures for the DC50 in assay [1], in assay [2] and in assay [3] were 0.018 µM, 0.009 µM and 0.01 µM, respectively.

In the case of `O=C1CC[C@H](Nc2ccc(C3CCN(CC(=O)N4CC5(C4)CN(c4ccc(-c6cc(F)c7c(c6)C(=O)N(C(C(=O)Nc6nccs6)c6ncn8c6CCC8)C7)cc4)C5)CC3)c(F)c2)C(=O)N1` (stereo partly drawn) [Compound 48, 2-(6,7-dihydro-5H-pyrrolo[1,2-c]imidazol-1-yl)-2-[6-[4-[2-[2-[4-[4-[[(3S)-2,6-dioxo-3-piperidyl]amino]-2-fluoro-phenyl]-1-piperidyl]acetyl]-2,6-diazaspiro[3.3]heptan-6-yl]phenyl]-4-fluoro-1-oxo-isoindolin-2-yl]-N-thiazol-2-yl-acetamide], the results for the DC50 in assay [1], in assay [2] and in assay [3] were 0.028 µM, 0.011 µM and 0.007 µM, respectively.

In the case of `O=C1CCC(Nc2ccc(C3CCN(CC(=O)N4CCN(Cc5ccc(-c6cc(F)c7c(c6)C(=O)N(C(C(=O)Nc6nccs6)c6ncn8c6CCC8)C7)cc5)CC4)CC3)c(F)c2)C(=O)N1` (stereo not drawn) [Compound 57, 2-(6,7-dihydro-5H-pyrrolo[1,2-c]imidazol-1-yl)-2-[6-[4-[[4-[2-[4-[4-[(2,6-dioxo-3-piperidyl)amino]-2-fluoro-phenyl]-1-piperidyl]acetyl]piperazin-1-yl]methyl]phenyl]-4-fluoro-1-oxo-isoindolin-2-yl]-N-thiazol-2-yl-acetamide], the DC50 (usually the concentration giving 50% degradation) in assay [1] was 0.046 µM; in assay [2], 0.007 µM; in assay [3], 0.011 µM.

With `O=C1CC[C@H](Nc2ccc(C3CCN(CC(=O)N4CCN(Cc5ccc(-c6cc(F)c7c(c6)C(=O)N(C(C(=O)Nc6nccs6)c6ncn8c6CCC8)C7)cc5)CC4)CC3)c(F)c2)C(=O)N1` (stereo partly drawn) [Compound 58, 2-(6,7-dihydro-5H-pyrrolo[1,2-c]imidazol-1-yl)-2-[6-[4-[[4-[2-[4-[4-[[(3S)-2,6-dioxo-3-piperidyl]amino]-2-fluoro-phenyl]-1-piperidyl]acetyl]piperazin-1-yl]methyl]phenyl]-4-fluoro-1-oxo-isoindolin-2-yl]-N-thiazol-2-yl-acetamide], the DC50 is 0.026 µM in assay [1], 0.014 µM in assay [2] and 0.026 µM in assay [3].

Consider `O=C1CC[C@H](Nc2ccc(C3CCN(C(=O)CN4CCN(Cc5ccc(-c6cc(F)c7c(c6)C(=O)N(C(C(=O)Nc6nccs6)c6ncn8c6CCC8)C7)cc5)CC4)CC3)c(F)c2)C(=O)N1` (stereo partly drawn) [Compound 59, 2-(6,7-dihydro-5H-pyrrolo[1,2-c]imidazol-1-yl)-2-[6-[4-[[4-[2-[4-[4-[[(3S)-2,6-dioxo-3-piperidyl]amino]-2-fluoro-phenyl]-1-piperidyl]-2-oxo-ethyl]piperazin-1-yl]methyl]phenyl]-4-fluoro-1-oxo-isoindolin-2-yl]-N-thiazol-2-yl-acetamide], for which the DC50 in assay [1] worked out at 0.019 µM; in assay [2], 0.008 µM; in assay [3] it was 0.012 µM.
